The record followed here is ChEMBL document CHEMBL3132757, “A new class of fluorinated 5-pyrrolidinylsulfonyl isatin caspase inhibitors for PET imaging of apoptosis” (Medchemcomm, 2013).

One data set has as its target T1, Caspase-3 (Homo sapiens, UniProt P42574).
T1 sequence (P42574 whole entry): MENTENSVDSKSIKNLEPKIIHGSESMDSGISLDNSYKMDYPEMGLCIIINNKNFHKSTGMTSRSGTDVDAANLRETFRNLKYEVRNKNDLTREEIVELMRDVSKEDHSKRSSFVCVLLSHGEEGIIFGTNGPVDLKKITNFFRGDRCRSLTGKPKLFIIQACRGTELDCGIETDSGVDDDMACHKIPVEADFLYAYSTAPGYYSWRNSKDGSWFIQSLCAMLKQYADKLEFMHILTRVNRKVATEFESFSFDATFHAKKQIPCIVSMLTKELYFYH
The data set is described as follows: Inhibition of recombinant human caspase-3 expressed in Escherichia coli using Ac-DEVD-AMC as substrate preincubated for 30 mins before substrate addition measured after 2 hrs.

For another data set, the target named is T2, Caspase-6 (Homo sapiens, UniProt P55212).
T2 sequence (P55212 whole entry): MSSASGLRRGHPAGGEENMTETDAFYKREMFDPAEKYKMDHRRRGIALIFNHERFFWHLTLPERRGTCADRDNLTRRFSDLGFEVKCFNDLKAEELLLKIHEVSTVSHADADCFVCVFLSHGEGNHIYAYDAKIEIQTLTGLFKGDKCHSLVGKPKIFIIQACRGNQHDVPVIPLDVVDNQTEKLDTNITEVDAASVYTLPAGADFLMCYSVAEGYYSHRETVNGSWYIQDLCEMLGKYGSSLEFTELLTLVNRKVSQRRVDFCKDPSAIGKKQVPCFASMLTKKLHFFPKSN
As to the kind of experiment: Inhibition of recombinant human caspase-6 expressed in Escherichia coli using Ac-VEID-AMC as substrate preincubated for 30 mins before substrate addition measured after 2 hrs.

In another data set the target is Caspase-8 (Homo sapiens, UniProt Q14790). As to the kind of experiment: Inhibition of recombinant human caspase-8 expressed in Escherichia coli using Ac-IETD-AMC as substrate preincubated for 30 mins before substrate addition measured after 2 hrs.
For the next data set, the target named is T3, Caspase-7 (Homo sapiens, UniProt P55210).
T3 sequence (P55210 whole entry): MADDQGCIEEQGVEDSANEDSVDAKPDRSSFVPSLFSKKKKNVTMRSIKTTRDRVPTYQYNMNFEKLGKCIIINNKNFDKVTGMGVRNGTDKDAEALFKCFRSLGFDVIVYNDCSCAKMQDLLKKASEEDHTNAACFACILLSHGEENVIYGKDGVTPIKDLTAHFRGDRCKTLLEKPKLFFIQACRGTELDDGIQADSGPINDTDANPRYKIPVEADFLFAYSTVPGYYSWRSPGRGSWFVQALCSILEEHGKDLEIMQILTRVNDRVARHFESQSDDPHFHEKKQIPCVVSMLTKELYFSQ
As to the kind of experiment: Inhibition of recombinant human caspase-7 expressed in Escherichia coli using Ac-DEVD-AMC as substrate preincubated for 30 mins before substrate addition measured after 2 hrs.

Data set [1] is described as follows: Lipophilicity, log P of the compound by HPLC method. The class given is physicochemical.
The next data set has as its target T4, Caspase-1 (Homo sapiens, UniProt P29466).
T4 sequence (P29466 whole entry): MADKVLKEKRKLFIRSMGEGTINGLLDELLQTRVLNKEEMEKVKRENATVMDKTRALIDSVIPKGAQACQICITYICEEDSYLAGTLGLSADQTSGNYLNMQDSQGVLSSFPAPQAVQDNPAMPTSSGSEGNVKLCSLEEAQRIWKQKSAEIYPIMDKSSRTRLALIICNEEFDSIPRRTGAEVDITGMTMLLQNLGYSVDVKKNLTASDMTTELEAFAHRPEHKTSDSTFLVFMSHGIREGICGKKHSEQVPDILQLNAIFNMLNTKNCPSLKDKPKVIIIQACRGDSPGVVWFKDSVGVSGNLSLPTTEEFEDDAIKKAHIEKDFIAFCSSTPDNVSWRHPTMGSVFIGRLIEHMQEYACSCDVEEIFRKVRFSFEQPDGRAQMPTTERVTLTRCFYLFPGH
As to the kind of experiment: Inhibition of recombinant human caspase-1 expressed in Escherichia coli using Ac-YVAD-AMC as substrate preincubated for 30 mins before substrate addition measured after 2 hrs.

Chain of Caspase-8 (Q14790 217-374 limits assumed): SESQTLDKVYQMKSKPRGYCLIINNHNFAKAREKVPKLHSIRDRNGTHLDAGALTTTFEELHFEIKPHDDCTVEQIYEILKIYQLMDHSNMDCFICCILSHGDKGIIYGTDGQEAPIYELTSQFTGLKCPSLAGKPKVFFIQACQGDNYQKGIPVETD
Chain of Caspase-8 (Q14790 385-479 limits assumed): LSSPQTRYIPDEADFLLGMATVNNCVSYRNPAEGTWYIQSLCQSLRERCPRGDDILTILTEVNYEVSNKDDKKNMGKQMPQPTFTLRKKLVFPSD

`O=C1C(=O)N(Cc2ccc(Cl)cc2)c2ccc(S(=O)(=O)N3CCC[C@H]3CF)cc21`: the IC50 is 7.1 nM on Caspase-3; over 10000 nM at Caspase-6; over 10000 nM at Caspase-8; 14.2 nM at Caspase-7; over 10000 nM on Caspase-1. The compound further gave a lipophilicity (logP) in data set [1] of 2.96.
In the case of `O=C1C(=O)N(Cc2ccc(OCCF)cc2)c2ccc(S(=O)(=O)N3CC4CNCC4C3)cc21` (stereo unspecified), the IC50 is 2210 nM at Caspase-3; over 10000 nM at Caspase-6; over 10000 nM on Caspase-8; 3510 nM on Caspase-7; over 10000 nM on Caspase-1. Further, the logP in data set [1] came to 1.19.
Regarding `COC[C@@H]1CCCN1S(=O)(=O)c1ccc2c(c1)C(=O)C(=O)N2Cc1ccc(OCCF)cc1`, the IC50 was 8.3 nM on Caspase-3; over 10000 nM at Caspase-6; over 10000 nM on Caspase-8; 4.6 nM at Caspase-7; over 10000 nM on Caspase-1. In data set [1], this compound registered a logP of 2.08.
`O=C1C(=O)N(Cc2ccc(OCCF)cc2)c2ccc(S(=O)(=O)N3CCC[C@H]3CF)cc21`: the IC50 at Caspase-3 is 19.2 nM; on Caspase-6 it was over 10000 nM; at Caspase-8, over 10000 nM; on Caspase-7, 41.4 nM; at Caspase-1, over 10000 nM. The logP in data set [1] is 2.33.
In the case of `O=C1C(=O)N(Cc2ccccc2[N+](=O)[O-])c2ccc(S(=O)(=O)N3CCC[C@H]3CF)cc21`, the IC50 was 3.1 nM on Caspase-3; 5080 nM at Caspase-6; over 10000 nM at Caspase-8; 19.8 nM at Caspase-7; 672 nM at Caspase-1. Further, the logP in data set [1] stood at 2.28.
As for `O=C1C(=O)N(Cc2ccc(F)cc2)c2ccc(S(=O)(=O)N3CCC[C@H]3CF)cc21`, the IC50 on Caspase-3 was 15.2 nM; on Caspase-6, over 10000 nM; on Caspase-8 it was over 10000 nM; at Caspase-7, 14 nM; at Caspase-1, over 10000 nM. In data set [1], this compound came in with a log partition coefficient (logP) of 2.5.
Turning to `O=C1C(=O)N(Cc2ccccc2I)c2ccc(S(=O)(=O)N3CCC[C@H]3CF)cc21`, the IC50 was 9.6 nM at Caspase-3; 3880 nM at Caspase-6; over 10000 nM at Caspase-8; 24 nM on Caspase-7; 522 nM at Caspase-1. Besides, the logP in data set [1] was 3.25.
For the compound `COc1ccc(CN2C(=O)C(=O)c3cc(S(=O)(=O)N4CCC[C@H]4CF)ccc32)cc1`, the IC50 at Caspase-3 was 13.7 nM; on Caspase-6 it was over 10000 nM; on Caspase-8, over 10000 nM; on Caspase-7, 9.6 nM; at Caspase-1, over 10000 nM. The log partition coefficient (logP) in data set [1] was found to be 2.65.
With `O=C1C(=O)N(Cc2cccc([N+](=O)[O-])c2)c2ccc(S(=O)(=O)N3CCC[C@H]3CF)cc21`, the IC50 at Caspase-3 is 12.8 nM; at Caspase-6, over 10000 nM; on Caspase-8 it was over 10000 nM; at Caspase-7, 16.5 nM; on Caspase-1 it was 4690 nM. The logP in data set [1] came out at 2.28.
In the case of `COC[C@@H]1CCCN1S(=O)(=O)c1ccc2c(c1)C(=O)C(=O)N2Cc1ccc(OC)cc1`, the IC50 was 17.6 nM at Caspase-3; over 10000 nM on Caspase-6; over 10000 nM on Caspase-8; 6.1 nM on Caspase-7; over 10000 nM at Caspase-1. Also, in data set [1], the logP is 2.2.
Turning to `O=C1C(=O)N(Cc2ccc(OCCF)cc2)c2ccc(S(=O)(=O)N3CCC[C@H]3COc3ccccc3)cc21`, the IC50 on Caspase-3 is 6.1 nM; at Caspase-6 it was over 10000 nM; on Caspase-8 it was over 10000 nM; at Caspase-1, over 10000 nM. In data set [1], this compound yielded a logP of 3.78.
For `O=C1C(=O)N(Cc2ccccc2)c2ccc(S(=O)(=O)N3CCC[C@H]3CF)cc21`, the IC50 is 13.9 nM at Caspase-3; over 10000 nM at Caspase-6; over 10000 nM at Caspase-8; 20.4 nM at Caspase-7; over 10000 nM at Caspase-1. The compound further yielded a logP in data set [1] of 2.61.
As to `O=C1C(=O)N(Cc2ccc(I)cc2)c2ccc(S(=O)(=O)N3CCC[C@H]3CF)cc21`, the IC50 on Caspase-3 was 8.1 nM; at Caspase-6 it was 3790 nM; at Caspase-8, over 10000 nM; at Caspase-7, 5.4 nM; at Caspase-1, over 10000 nM. Besides, the logP in data set [1] was 3.31.
Take `O=C1C(=O)N(Cc2ccc(Br)cc2)c2ccc(S(=O)(=O)N3CCC[C@H]3CF)cc21`: the IC50 on Caspase-3 is 6.2 nM; on Caspase-6 it was over 10000 nM; on Caspase-8 it was over 10000 nM; on Caspase-7, 15.9 nM; at Caspase-1, over 10000 nM. Besides, the logP in data set [1] was found to be 3.11.
`O=C1C(=O)N(Cc2cccc(I)c2)c2ccc(S(=O)(=O)N3CCC[C@H]3CF)cc21`: the IC50 was 11.6 nM at Caspase-3; over 10000 nM on Caspase-6; over 10000 nM at Caspase-8; 21.8 nM on Caspase-7; 1700 nM at Caspase-1. The same compound yielded a logP in data set [1] of 3.21.
`O=C1C(=O)N(Cc2nnnn2Cc2ccccc2)c2ccc(S(=O)(=O)N3CCC[C@H]3CF)cc21`: the IC50 was 4.4 nM at Caspase-3; over 10000 nM on Caspase-6; over 10000 nM at Caspase-8; 25.3 nM on Caspase-7; 1880 nM at Caspase-1. The logP in data set [1] was determined as 1.94.
Take `O=C1C(=O)N(Cc2ccc([N+](=O)[O-])cc2)c2ccc(S(=O)(=O)N3CCC[C@H]3CF)cc21`: the IC50 on Caspase-3 is 6.3 nM; at Caspase-6 it was over 10000 nM; at Caspase-8, over 10000 nM; on Caspase-7, 11.2 nM; at Caspase-1, over 10000 nM. This compound also came in with a logP in data set [1] of 2.39.
